These results are taken from patent US4211764A, “Gastric secretion stimulation with 2-amino-5-(2-aminoethyl)-1,3,4-thiadiozole” (priority 1978, dated 1980).

One may read the LD50 as the dose expected to kill half of the subjects tested. A high value points to lower toxicity. What is called Emax is the size of the effect at its maximum, as opposed to the concentration needed.

For one data set, the system named is gastric juice. Put plainly: Acute Shay test (pylorus ligation). The data set is classed as in vivo, rat. The settings on record: rats, 8 mg/kg intraperitoneally. Here is the method:
Twenty acute Shay tests were performed on male rats weighing 250 to 300 g. The pylorus of each of the animals was ligated 2 hours before the slaughter. The pH and volume of the gastric juice were determined. […] In the control group, pH of the gastric juice was 2.2, and the average HCl output was 0.12 mEq per animal. In the experimental animals, pH of the gastric juice was 1.6, and the HCl output was 0.41 mEq.

A further data set concerns Respiration. Description: Effects on depth and rate of respiration. The data set is classed as in vivo, rabbits and cats. From the text:
E. Effects on Depth and Rate of
Respiration (rabbits and cats)

Another data set is described as follows: Acute toxicity, rats. The following applies: rat, in vivo, ip; male rats, 200-250 g, i/p. From the text: The results of the tests are generalized in Table 1.
The target in the next data set is H2 -receptors (Rattus norvegicus, UniProt P25102). The following applies: uterus horn.
The mark [1] stands for this setting: 0.1-0.2 mg/kg i/m, Control Period.
The mark [2] stands for this setting: 0.1-0.2 mg/kg i/v, Control Period.

H2 -receptors, sequence (P25102 whole entry): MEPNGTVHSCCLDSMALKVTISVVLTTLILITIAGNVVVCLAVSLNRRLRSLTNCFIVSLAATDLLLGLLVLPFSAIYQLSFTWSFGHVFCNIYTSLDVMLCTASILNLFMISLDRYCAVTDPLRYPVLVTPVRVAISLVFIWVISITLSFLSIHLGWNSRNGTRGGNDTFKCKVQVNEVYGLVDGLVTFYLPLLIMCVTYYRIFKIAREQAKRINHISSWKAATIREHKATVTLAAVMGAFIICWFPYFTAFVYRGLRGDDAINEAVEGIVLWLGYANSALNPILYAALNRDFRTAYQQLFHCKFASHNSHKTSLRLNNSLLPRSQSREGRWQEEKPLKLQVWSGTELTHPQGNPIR
Procedure for H2 -receptors: Contractions of an isolated horn of uterus of a rat due to the effect of acetylcholine in a concentration of 1.10^-6 M were recorded on a paper tape.

`NCCc1nnc(N)s1` [Thidazine, 2-amino-5-(2-aminoethyl)-1,3,4-thiadiazole]: the “increase of output of hydrochloric acid after ligation of the pylorus” value with gastric juice is given as “increased the output of hydrochloric acid more than threefold”. This compound gave an HCl Output in the data set with gastric juice (control group 0.12 mEq per animal) of 0.41 mEq. Besides, in the data set on gastric juice (control group 2.2), the “pH of the gastric juice” value was determined as 1.6. The Respiration amplitude came to 10.0 ± 0.8 mm in the data set on Respiration (1 mg/kg i/v, Control Period); 14.0 ± 0.4 mm in the data set with Respiration (1 mg/kg i/v, Test Period); 110.0 ± 7.0 mm with Respiration (2 mg/kg i/v, Control Period); 140 ± 20.0 mm in the data set on Respiration (2 mg/kg i/v, Test Period); 160.0 ± 6.2 mm in the data set on Respiration (setting [1]); 160 ± 10.1 mm in the data set on Respiration (0.1-0.2 mg/kg i/m, Test Period). The Respiration amplitude in the data set on Respiration (setting [2]) came to 220 ± 0.3 mm; in the data set with Respiration (0.1-0.2 mg/kg i/v, Test Period), 180 ± 0.1 mm. The “Respiration rate per minute” value stood at 120 ± 10.0 per minute in the data set on Respiration (1 mg/kg i/v, Control Period); 85.0 ± 6.0 per minute in the data set with Respiration (1 mg/kg i/v, Test Period); 100.0 ± 8.0 per minute in the data set on Respiration (2 mg/kg i/v, Control Period); 85.0 ± 10.0 per minute in the data set with Respiration (2 mg/kg i/v, Test Period); 79.0 ± 2.0 per minute in the data set on Respiration (setting [1]); 78.0 ± 2.3 per minute with Respiration (0.1-0.2 mg/kg i/m, Test Period). The “Respiration rate per minute” value with Respiration (setting [2]) is 90.0 ± 0.2 per minute; in the data set on Respiration (0.1-0.2 mg/kg i/v, Test Period) it was 85.0 ± 0.4 per minute. Moreover, the LD50 in “Acute toxicity, rats” amounted to 1 mg/kg. Besides, the Emax on H2 -receptors came to 15%.
